Measured values taken from patent US11066383B2, “Inhibitors of indoleamine 2,3-dioxygenase and methods of their use” (BRISTOL-MYERS SQUIBB COMPANY, priority 2016, dated 2021).

Target: T1, human IDO1 (Homo sapiens, UniProt P14902)
T1 construct: expressed in transfected cells
Test: HEK Human IDO-1 inhibition assay (kynurenine production in human IDO1/HEK293 cells)
Type: cell-based
Conditions: read-out: Bio Activity (μM) IC50
Experimental: HEK293 cells were transfected with a pCDNA-based mammalian expression vector harboring human IDO1 cDNA (NM 002164.2) by electroporation. They were cultured in medium (DMEM with 10% FBS) containing 1 mg/ml G418 for two weeks. Clones of HEK293 cells that stably expressed human IDO1 protein were selected and expanded for IDO inhibition assay.
The human IDO1/HEK293 cells were seeded at 10,000 cells per 50 μL per well with RPMI/phenol red free media contains 10% FBS in a 384-well black wall clear bottom tissue culture plate (Matrix Technologies LLC) 100 nL of certain concentration of compound was then added to each well using ECHO liquid handling systems. The cells were incubated for 20 hours in 37° C. incubator with 5% CO2.
The compound treatments were stopped by adding trichloroacetic acid (Sigma-Aldrich) to a final concentration at 0.2%. The cell plate was further incubated at 50° C. for 30 minute. The equal volume supernatant (20 μL) and 0.2% (w/v) Ehrlich reagent (4-dimethylaminobenzaldehyde, Sigma-Aldrich) in glacial acetic acid were mixed in a new clear bottom 384-well plate. This plate was then incubated at room temperature for 30 minute. The absorbance at 490 nm was measured on Envision plate reader.
Compound IC50 values were calculated using the counts of 500 nM of a reference standard treatment as one hundred percent inhibition, and counts of no compound but DMSO treatment as zero percent inhibition.

T1 sequence (P14902 whole entry): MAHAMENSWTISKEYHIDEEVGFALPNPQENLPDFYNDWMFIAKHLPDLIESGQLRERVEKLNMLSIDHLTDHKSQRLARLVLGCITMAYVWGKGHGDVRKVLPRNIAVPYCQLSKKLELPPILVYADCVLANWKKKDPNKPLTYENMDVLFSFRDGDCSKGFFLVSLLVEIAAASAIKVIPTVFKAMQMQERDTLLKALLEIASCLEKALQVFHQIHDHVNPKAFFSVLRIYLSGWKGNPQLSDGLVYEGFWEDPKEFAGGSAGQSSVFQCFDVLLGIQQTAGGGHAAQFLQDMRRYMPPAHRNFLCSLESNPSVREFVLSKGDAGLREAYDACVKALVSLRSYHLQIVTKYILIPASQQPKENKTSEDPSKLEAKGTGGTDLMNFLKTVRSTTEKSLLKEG

**Q.** `Cc1cc(Cl)ccc1CNC(=O)CC1(C)CCN(c2ccnc3ccc(F)cc23)CC1` [Example 1, N-(4-Chloro-2-methylbenzyl)-2-(1-(6-fluoroquinolin-4-yl)-4-methylpiperidin-4-yl)acetamide] was tested. Which IC50 did it give?
**A.** < 0.1 µM

**Q.** With `C[C@@H](C(=O)NCc1ccccc1)[C@H]1CC[C@@H](c2ccnc3ccc(F)cc32)CC1` [Example 18] as the molecule, how does the IC50 read?
**A.** < 10 µM

**Q.** With `C[C@@H](C(=O)NC(C)(C)c1ccc(Cl)cc1)[C@H]1CC[C@@H](c2ccnc3ccc(F)cc32)CC1` [Example 15, (R)-N-(2-(4-chlorophenyl)propan-2-yl)-2-((cis)-4-(6-fluoroquinolin-4-yl)cyclohexyl)propanamide] as the molecule, how does the IC50 read?
**A.** < 1 µM

**Q.** With `CC1(CC(=O)NC2(c3ccc(Cl)cc3Cl)CC2)CCN(c2ccnc(C(F)(F)F)c2)CC1` [Example 7, N-(1-(2,4-dichlorophenyl)cyclo-propyl)-2-(4-methyl-1-(2-(trifluoro-methyl)pyridin-4-yl)piperidin-4-yl)acetamide] as the molecule, how does the IC50 read?
**A.** < 1 µM

**Q.** `CC1(CC(=O)NC23CC4CC(CC(C4)C2)C3)CCN(c2ccnc3ccc(F)cc23)CC1` [Example 22, N-((3s,5s,7s)-Adamantan-1-yl)-2-(1-(6-fluoroquinolin-4-yl)-4-methylpiperidin-4-yl)acetamide] was tested. Which IC50 did it give?
**A.** < 0.1 µM

**Q.** For `C[C@H](NC(=O)[C@H](C)[C@H]1CC[C@@H](c2ccnc3ccc(F)cc32)CC1)c1ccc(Cl)cc1` [Example 14, (R)-N-((S)-1-(4-chlorophenyl)ethyl)-2-((cis)-4-(6-fluoroquinolin-4-yl)cyclohexyl)propanamide], which IC50 is on record?
**A.** < 0.1 µM

**Q.** How did the IC50 turn out when `C[C@H](NC(=O)CC1(C)CCN(c2ccnc3ccc(F)cc23)CC1)c1ccc(Cl)cc1` [Example 4, (S)-N-(1-(4-chlorophenyl)ethyl)-2-(1-(6-fluoroquinolin-4-yl)-4-methylpiperidin-4-yl)acetamide] was run?
**A.** < 0.1 µM

**Q.** For `CC1(CC(=O)N[C@@]23C[C@@H]4C[C@@H](C[C@@](O)(C4)C2)C3)CCN(c2ccnc3ccc(F)cc23)CC1` [Example 23, 2-(1-(6-Fluoroquinolin-4-yl)-4-methylpiperidin-4-yl)-N-((1r,3s,5R,7S)-3-hydroxyadamantan-1-yl)acetamide], which IC50 is on record?
**A.** < 1 µM

**Q.** With `C[C@H](NC(=O)CC1(C)CCN(c2ccnc(C(F)(F)F)c2)CC1)c1ccc(Cl)cc1` [Example 9, (S)-N-(1-(4-chlorophenyl)ethyl)-2-(4-methyl-1-(2-(trifluoromethyl)-pyridin-4-yl)piperidin-4-yl)acetamide] as the molecule, how does the IC50 read?
**A.** < 1 µM

**Q.** With `C[C@@H](C(=O)NCc1ccccc1Cl)[C@H]1CC[C@@H](c2ccnc3ccc(F)cc32)CC1` [Example 10, (R)—N-(2-chlorobenzyl)-2-((cis)-4-(6-fluoroquinolin-4-yl)cyclohexyl)propanamide] as the molecule, how does the IC50 read?
**A.** < 1 µM

**Q.** `C[C@@H](C(=O)NC1(c2ccc(Cl)cc2Cl)CC1)[C@H]1CC[C@@H](c2ccnc3ccc(F)cc32)CC1` [Example 16, (R)-N-(1-(2,4-dichlorophenyl)cyclopropyl)-2-((cis)-4-(6-fluoroquinolin-4-yl)cyclohexyl)propanamide] was tested. Which IC50 did it give?
**A.** < 1 µM

**Q.** With `CC[C@H](NC(=O)CC1(C)CCN(c2ccnc(C(F)(F)F)c2)CC1)c1ccccc1` [Example 6, (S)-2-(4-Methyl-1-(2-(trifluoromethyl)pyridin-4-yl)piperidin-4-yl)-N-(1-phenylpropyl)acetamide] as the molecule, how does the IC50 read?
**A.** < 1 µM

**Q.** With `CCCC(C(=O)NC12CC3CC(CC(C3)C1)C2)N1CCN(c2ccnc3ccc(F)cc23)CC1` (single isomer, unassigned) [Example 19-1] as the molecule, how does the IC50 read?
**A.** < 10 µM

**Q.** How did the IC50 turn out when `C[C@@H](C(=O)NCc1ccc(-c2ccccc2)cc1)[C@H]1CC[C@@H](c2ccnc3ccc(F)cc32)CC1` [Example 12, (R)-N-([1,1′-biphenyl]-4-ylmethyl)-2-((cis)-4-(6-fluoroquinolin-4-yl)cyclohexyl)propanamide] was run?
**A.** < 1 µM

**Q.** How did the IC50 turn out when `C[C@@H](NC(=O)[C@H](C)[C@H]1CC[C@@H](c2ccnc3ccc(F)cc32)CC1)c1ccc(Cl)cc1` [Example 17, (R)-N-((R)-1-(4-chlorophenyl)ethyl)-2-((1s,4S)-4-(6-fluoroquinolin-4-yl)cyclohexyl)propanamide] was run?
**A.** < 10 µM

**Q.** For `CC1(CC(=O)NC(C)(C)c2ccc(Cl)cc2)CCN(c2ccnc(C(F)(F)F)c2)CC1` [Example 8, N-(2-(4-chlorophenyl)propan-2-yl)-2-(4-methyl-1-(2-(trifluoromethyl)-pyridin-4-yl)piperidin-4-yl)acetamide], which IC50 is on record?
**A.** < 10 µM

**Q.** With `CC1(CC(=O)NCc2ccc(Cl)cc2)CCN(c2ccnc3ccc(F)cc23)CC1` [Example 5, N-(4-chlorobenzyl)-2-(1-(6-fluoroquinolin-4-yl)-4-methylpiperidin-4-yl)acetamide] as the molecule, how does the IC50 read?
**A.** < 1 µM

**Q.** Which IC50 does the source give for `CC1(CC(=O)NC2(c3ccc(Cl)cc3Cl)CC2)CCN(c2ccnc3ccc(F)cc23)CC1` [Example 2, N-(1-(2,4-dichlorophenyl)cyclo-propyl)-2-(1-(6-fluoroquinolin-4-yl)-4-methylpiperidin-4-yl)acetamide] here?
**A.** < 0.1 µM

**Q.** How did the IC50 turn out when `C[C@H](NC(=O)[C@H](C)[C@H]1CC[C@@H](c2ccnc3ccc(F)cc32)CC1)c1ccccc1` [Example 13, (R)-2-((cis)-4-(6-fluoroquinolin-4-yl)cyclohexyl)-N-((S)-1-phenylethyl)propanamide] was run?
**A.** < 1 µM

**Q.** `CC1(CC(=O)NC(C)(C)c2ccc(Cl)cc2)CCN(c2ccnc3ccc(F)cc23)CC1` [Example 3, N-(2-(4-chlorophenyl)propan-2-yl)-2-(1-(6-fluoroquinolin-4-yl)-4-methylpiperidin-4-yl)acetamide] was tested. Which IC50 did it give?
**A.** < 0.1 µM
